Like-named read-outs stand apart in the source and are kept apart here.
Columns and labels:
mice = assay: Streptozotocin-induced diabetic neuropathy, hot plate test (thermal hyperalgesia); type: in vivo, Albino Swiss mice; settings: diabetic (STZ) mice; 10 mg/kg i.p.
Protocol: The induction of diabetes neuropathy in mice was achieved through the administration of streptozotocin (STZ), dissolved in PBS at a dose of 200 mg/kg in a constant volume of 0.1 mL/10 g of mouse body weight, intraperitoneally; (n = 50). Blood glucose levels were measured immediately prior to the administration of streptozotocin and 14 and 21 days following this administration in order to confirm the presence of hyperglycemia. For this purpose, 5 µL of blood was drawn from the tail vein of the mice using a strip glucose meter (AccuChek Active, Roche, Boulogne-Billancourt, France).
To assess increased sensitivity to thermal stimuli, we used a hot plate testing apparatus (Panlab/Harvard Apparatus, Cornellà de Llobregat, Spain), following the methodology originally described by. In this procedure, after determining the baseline pain response time, 30 min after drug administration, mice were placed on a hot plate maintained at 55 °C and monitored for pain-related behaviors such as licking their hind paws or jumping. To avoid potential damage to paw tissue, a time limit of 45 s was set.

[1] = design: method as in PMID 35396875; settings: initial in vivo screening; cited from earlier work
[2] = Pharmacokinetic study after single i.p. administration, serum and brain concentrations by LC-MS/MS, non-compartmental analysis; type: in vivo, Albino Swiss mice; settings: mice; for half-life: read-out: t1/2(λz) half-life in the elimination phase (converted); for k el: read-out: λz (terminal elimination rate constant) (converted)
Protocol: The compounds F1, F2, F3, and F4 were suspended in a 1% Tween 80 solution in sterile water for injection and given to mice i.p. at a dose of 5 mg/kg (n = 3 per time point; all mice in procedure = 96) as a single injection at a volume of 10 mL/kg. At specific time points (5; 15; 30; 60; 120; 240; 360; and 480 min after compound administration), mice were sacrificed by decapitation under isoflurane (5%) anesthesia to harvest blood and brain for assays. After allowing the blood to coagulate for 20 min at room temperature, blood samples were centrifuged for 10 min at 8000 rpm (Eppendorf miniSpin centrifuge) to obtain serum. Moreover, brains were removed (at the same time point) from skulls and washed with 0.9% NaCl. The obtained serum and brains were stored at −80 °C until analysis.
Concentrations of compounds F1 to F4 in mice brains and serum were measured by the liquid chromatography tandem mass spectrometry (LC-MS/MS) method using a Sciex QTRAP 4500 triple quadrupole mass spectrometer coupled to an Excion LC AC HPLC system (both from Danaher Corporation, Washington, DC, USA). The brains were homogenized in distilled water at the ratio of 1:4 (w/v) with a tissue homogenizer ULTRA-TURRAX T10 basic (IKA, Königswinter, Germany). The stock solutions of analyzed compounds were prepared in methanol at the concentration of 1 mg/mL. For the preparation of calibration curves, working standard solutions were prepared in methanol by the serial dilution of the stock solution at the following concentrations: 0.005; 0.01; 0.1; 0.25; 0.5; 1; 2.5; 5; and 10 µg/mL. To prepare samples for the calibration curve, 45 μL of matrix (blank plasma or brain homogenate) was spiked with 5 μL of standard working solution at an appropriate concentration level and vortexed for 10 s. Brain homogenates or serum samples (50 µL) as well as calibration samples were deproteinized with 150 μL of 0.1% formic acid in acetonitrile with an addition of internal standard (valsartan), shaken for 10 min (IKA Vibrax VXR, Königswinter, Germany), and centrifuged for 5 min at a speed of 8000× g (Eppendorf miniSpin centrifuge, Hamburg, Germany). Then, brain or serum supernatants were transferred into the autosampler vials. The autosampler temperature was maintained at 15 °C and a sample volume of 1 μL was injected into the LC-MS/MS system.
Chromatographic separation was carried out on the Hypersil GoldTM C18 analytical column (2.1 × 50 mm, 3 µm, Thermo Scientific, Waltham, MA, USA) with the oven temperature set at 30 °C. The mobile phase containing 0.1% formic acid in acetonitrile and 0.1% formic acid in water was delivered at a flow rate of […] in the gradient mode. Electrospray ionization (ESI) in the positive ion mode was used for ion production. The tandem mass spectrometer was operated at unit resolution in the selected reaction monitoring mode (SRM), monitoring the transitions of the protonated molecular ions m/z 366 to 201 (CE = 40 eV) and m/z 366 to 160 (CE = 40 eV) for compound F1, m/z 396 to 190 (CE = 39 eV) and m/z 396 to 160 (CE = 49 eV) for compound F2, m/z 434 to 145 (CE = 95 eV) and m/z 434 to 160 (CE = 47 eV) for compound F3, and m/z 456 to 167 (CE = 27 eV) and m/z 456 to 152 (CE = 85 eV) for compound F4. The first pair was used as a quantifier and the second for the identity verification—qualifier. One pair (m/z 436 to 235; CE = 42 eV) was monitored for valsartan used as an internal standard. The mass spectrometric conditions were optimized by continuous infusion of the standard solutions at the rate of 7 μL/min using a Harvard infusion pump (Harvard Apparatus, Holliston, MA, USA). The ion source temperature was maintained at 450 °C and the ion spray voltage was set at 4500 V. The curtain gas (CUR) was set at 40 and the collision gas (CAD) at Medium. The calibration curves were constructed by plotting the ratio of the peak area of the studied compound to internal standard (IS) versus drug concentration and generated by weighted (1/x·x) linear regression analysis. […]

rats = assay: Carrageenan-induced paw edema (plethysmometer); type: in vivo, Wistar rats; settings: for Change in Edema Volume: mean ± SEM, rats; for Reduction in edema volume: vs control
Protocol: The acute and local inflammation and paw edema was induced by intraplantar (i.pl.) injection of 0.1 mL of 1% carrageenan solution in PBS into the rat’s right hind paw, according to the modified method of Winter and Lence, as described previously; (n = 84). […] Vehicle (1% Tween 80) was administered by the same route as the tested compounds.

[3] = Albino Swiss, mouse, ip, brain, 5 mg/kg i.p.
[4] = Albino Swiss, mouse, ip, serum, 5 mg/kg i.p.

Structure (SMILES): O=C1c2ccccc2C(=O)N1CC(O)CN1CCN(C(c2ccccc2)c2ccccc2)CC1 (centres unmarked) [Compound F4]
- Pain response latency time after compound administration (hot plate, 55 °C) (mice): did not affect the latency time
- Activity in central (supraspinal) pain model, hot plate test [1]: inactive
- Kp ([2]; Albino Swiss, mouse, brain/serum, ip, 5 mg/kg i.p., read-out: Kbrain/serum (brain/serum partitioning coefficient)): 1.62
- MRT [2, 3]: 97.8 min
- Tmax [2, 3]: 15 min
- half-life [2, 3]: 46.8 min
- k el [2, 3]: 0.000247 s⁻¹
- Cmax ([2]; Albino Swiss, mouse, ip, serum, 5 min after 5 mg/kg i.p., read-out: Cmax (maximal concentration)): 131 ng/mL
- CL/F [2, 4]: 800 mL/min/kg
- MRT [2, 4]: 88.2 min
- Tmax [2, 4]: 4.98 min
- Vd/F ([2]; Albino Swiss, mouse, ip, serum, 5 mg/kg i.p., read-out: Vz/F): 55.8 L/kg
- half-life [2, 4]: 48 min
- k el [2, 4]: 0.000239 s⁻¹
- AUC0-inf ([2]; brain, 5 mg/kg i.p.): 168.99 µg∙h/L(kg)
- AUC0–8h ([2]; brain, 5 mg/kg i.p.): 164.50 µg∙h/L(kg)
- Cmax ([2]; brain, 5 mg/kg i.p. single dose): 163.5 µg/L(kg)
- AUC0-inf ([2]; serum, 5 mg/kg i.p.): 104.12 µg∙h/L(kg)
- AUC0–8h ([2]; serum, 5 mg/kg i.p.): 101.99 µg∙h/L(kg)
- Cmax ([2]; serum, 5 mg/kg i.p. single dose): 130.58 µg/L(kg)
- Change in Edema Volume (rats; 10 mg/kg i.p., 1 h after carrageenan): 1.37 ± 0.04 mL
- Change in Edema Volume (rats; 10 mg/kg i.p., 2 h after carrageenan): 1.56 ± 0.06 mL
- Change in Edema Volume (rats; 10 mg/kg i.p., 3 h after carrageenan): 1.85 ± 0.04 mL
- Reduction in edema volume (rats; 10 mg/kg, 1 h): 8.7%
- Reduction in edema volume (rats; 10 mg/kg, 2 h): 17%
- Reduction in edema volume (rats; 10 mg/kg, 3 h): 15.5%
- Change in Edema Volume (rats; 20 mg/kg i.p., 1 h after carrageenan): 1.23 ± 0.01 mL
- Change in Edema Volume (rats; 20 mg/kg i.p., 2 h after carrageenan): 1.47 ± 0.05 mL
- Change in Edema Volume (rats; 20 mg/kg i.p., 3 h after carrageenan): 1.73 ± 0.02 mL
- Reduction in edema volume (rats; 20 mg/kg, 1 h): 18%
- Reduction in edema volume (rats; 20 mg/kg, 2 h): 21.8%
- Reduction in edema volume (rats; 20 mg/kg, 3 h): 21%
